Active and inactive are the calls of the source. No rule for the calls is given here.
What follows are compounds tested against glucose-6-phosphate dehydrogenase-6-phosphogluconolactonase [Plasmodium falciparum 3D7] (assay: PfG6PD enzyme inhibitors, orthogonal readout, SAR follow-up, orthogonal assay for PfG6PD antimalarial inhibitor project, biochemical, direct NADPH end-point detection, set 2 (AID 602132)). Settings: recombinant PfG6PD.

SMILES	IC50
NC1CCN(C(=O)c2ccc3c(c2)NC(=O)/C(=C/c2ccccc2F)S3)C1 (stereo unspecified)	> 80 µM (inactive)
CCN1CCCC1CNC(=O)c1ccc2c(c1)NC(=O)/C(=C/c1cccc(F)c1F)S2 (stereo unspecified)	> 80 µM (inactive)
CCN1CCCC1CNC(=O)c1ccc2c(c1)NC(=O)/C(=C/c1ccc(F)cc1)S2 (stereo unspecified)	> 80 µM (inactive)
CCN1CCCC1CNC(=O)c1ccc2c(c1)NC(=O)/C(=C/c1c(F)cccc1F)S2 (stereo unspecified)	> 80 µM (inactive)
CCC(C)N1CCCC1CNC(=O)c1ccc2c(c1)NC(=O)c1ccccc1S2 (stereo unspecified)	> 80 µM (inactive)
NCCNC(=O)c1ccc2c(c1)NC(=O)c1ccccc1S2	> 80 µM (inactive)
NC1CCN(C(=O)c2ccc3c(c2)NC(=O)c2ccccc2S3)C1 (stereo unspecified)	> 80 µM (inactive)
CCN1CCC[C@H]1CNC(=O)c1ccc2c(c1)NC(=O)c1ccccc1S2	64.8 µM
CN(C)c1ccccc1CNC(=O)c1ccc2c(c1)NC(=O)/C(=C/c1ccccc1F)S2	> 80 µM (inactive)
O=C1Nc2cc(C(=O)NCC3CCCN3)ccc2S/C1=C\c1ccccc1F (stereo unspecified)	> 80 µM (inactive)
CCN1CCCC1CNC(=O)c1ccc2c(c1)NC(=O)/C(=C/c1ccc3ccccc3c1)S2 (stereo unspecified)	> 80 µM (inactive)
O=C(NCCNC1CCCCC1)c1ccc2c(c1)NC(=O)c1ccccc1S2	> 80 µM (inactive)
CC(C)(C)OC(=O)N1CCCC1CNC(=O)c1ccc2c(c1)NC(=O)/C(=C/c1ccccc1F)S2 (stereo unspecified)	> 80 µM (inactive)

Results, then the compound that gave them:

IC50	SMILES
> 80 µM (inactive)	CCCN1CCCC1CNC(=O)c1ccc2c(c1)NC(=O)/C(=C/c1ccccc1F)S2 (stereo unspecified)
> 80 µM (inactive)	CCN1CCCC1CNC(=O)c1ccc2c(c1)NC(=O)C(Cc1ccccc1F)S2 (stereo unspecified)
6.69 µM	CCN1CCC[C@@H]1CNC(=O)c1ccc2c(c1)NC(=O)c1ccccc1S2
25.4 µM	O=C(NCCN1CCCCC1)c1ccc2c(c1)NC(=O)c1ccccc1S2
> 80 µM (inactive)	O=C(NCCN1CCOCC1)c1ccc2c(c1)NC(=O)c1ccccc1S2
> 80 µM (inactive)	CCN(CC)CCCC(C)Nc1ccnc2cc(Cl)ccc12 (stereo unspecified)
> 80 µM (inactive)	CCN1CCCC1CNC(=O)c1ccc2c(c1)NC(=O)/C(=C/c1cccc(F)c1)S2 (stereo unspecified)
25 µM	CCC(C)N(CCNC(=O)c1ccc2c(c1)NC(=O)c1ccccc1S2)C1CCCCC1 (stereo unspecified)
